# Data taken from ChEMBL document CHEMBL2010689 (J Med Chem, 2012).
# Calls of active or inactive are those of the source. No cut-off for these calls is given here.
# How the values were obtained:
# [1] = target: Casein kinase I isoform alpha (Homo sapiens, UniProt P48729); experiment: Inhibition of CK1 using ATP as substrate
# [2] = Cmax in cynomolgus monkey at 3 mg/kg, po; format: ADME, organism-based, Macaca fascicularis; parameters: dose 3 mg/kg, route oral; conditions: in vivo
# [3] = tested on: A-375; experiment: Antitumor activity against human A375 cells xenografted in athymic nude mouse assessed as partial tumor regression at 10 mg/kg, po bid; format: functional
# [4] = target: Glycogen synthase kinase-3 beta (Homo sapiens) (UniProt P49841); experiment: Inhibition of GSK3beta at 1 uM
# Sequence of Glycogen synthase kinase-3 beta (Homo sapiens) (P49841 whole entry, looked up): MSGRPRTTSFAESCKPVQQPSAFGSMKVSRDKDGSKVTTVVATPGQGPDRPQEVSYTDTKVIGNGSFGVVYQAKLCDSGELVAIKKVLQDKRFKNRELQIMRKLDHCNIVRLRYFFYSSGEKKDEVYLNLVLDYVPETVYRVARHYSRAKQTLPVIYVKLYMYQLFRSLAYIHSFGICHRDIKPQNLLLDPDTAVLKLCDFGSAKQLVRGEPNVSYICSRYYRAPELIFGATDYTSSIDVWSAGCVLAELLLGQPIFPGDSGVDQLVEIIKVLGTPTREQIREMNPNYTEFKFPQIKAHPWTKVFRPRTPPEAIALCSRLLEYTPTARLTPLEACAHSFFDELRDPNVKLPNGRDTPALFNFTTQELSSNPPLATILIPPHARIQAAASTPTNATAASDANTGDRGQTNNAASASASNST
# [5] = tested on: A-375; experiment: Antitumor activity against human A375 cells xenografted in athymic nude mouse assessed as partial tumor regression at 1 mg/kg, po bid; format: functional
# [6] = tested on: HUVEC; experiment: Antiangiogenic activity in HUVEC assessed as inhibition of FGF-induced proliferation; format: functional, cell-based; conditions: Homo sapiens
# [7] = Antitumor activity against human U251MG cells xenografted in athymic nude mouse assessed as complete tumor regression at 30 mg/kg, po bid; format: functional, U-251
# [8] = target: Hepatocyte growth factor receptor (Homo sapiens) (UniProt P08581); experiment: Inhibition of cMET at 1 uM
# Sequence of Hepatocyte growth factor receptor (Homo sapiens) (P08581 whole entry): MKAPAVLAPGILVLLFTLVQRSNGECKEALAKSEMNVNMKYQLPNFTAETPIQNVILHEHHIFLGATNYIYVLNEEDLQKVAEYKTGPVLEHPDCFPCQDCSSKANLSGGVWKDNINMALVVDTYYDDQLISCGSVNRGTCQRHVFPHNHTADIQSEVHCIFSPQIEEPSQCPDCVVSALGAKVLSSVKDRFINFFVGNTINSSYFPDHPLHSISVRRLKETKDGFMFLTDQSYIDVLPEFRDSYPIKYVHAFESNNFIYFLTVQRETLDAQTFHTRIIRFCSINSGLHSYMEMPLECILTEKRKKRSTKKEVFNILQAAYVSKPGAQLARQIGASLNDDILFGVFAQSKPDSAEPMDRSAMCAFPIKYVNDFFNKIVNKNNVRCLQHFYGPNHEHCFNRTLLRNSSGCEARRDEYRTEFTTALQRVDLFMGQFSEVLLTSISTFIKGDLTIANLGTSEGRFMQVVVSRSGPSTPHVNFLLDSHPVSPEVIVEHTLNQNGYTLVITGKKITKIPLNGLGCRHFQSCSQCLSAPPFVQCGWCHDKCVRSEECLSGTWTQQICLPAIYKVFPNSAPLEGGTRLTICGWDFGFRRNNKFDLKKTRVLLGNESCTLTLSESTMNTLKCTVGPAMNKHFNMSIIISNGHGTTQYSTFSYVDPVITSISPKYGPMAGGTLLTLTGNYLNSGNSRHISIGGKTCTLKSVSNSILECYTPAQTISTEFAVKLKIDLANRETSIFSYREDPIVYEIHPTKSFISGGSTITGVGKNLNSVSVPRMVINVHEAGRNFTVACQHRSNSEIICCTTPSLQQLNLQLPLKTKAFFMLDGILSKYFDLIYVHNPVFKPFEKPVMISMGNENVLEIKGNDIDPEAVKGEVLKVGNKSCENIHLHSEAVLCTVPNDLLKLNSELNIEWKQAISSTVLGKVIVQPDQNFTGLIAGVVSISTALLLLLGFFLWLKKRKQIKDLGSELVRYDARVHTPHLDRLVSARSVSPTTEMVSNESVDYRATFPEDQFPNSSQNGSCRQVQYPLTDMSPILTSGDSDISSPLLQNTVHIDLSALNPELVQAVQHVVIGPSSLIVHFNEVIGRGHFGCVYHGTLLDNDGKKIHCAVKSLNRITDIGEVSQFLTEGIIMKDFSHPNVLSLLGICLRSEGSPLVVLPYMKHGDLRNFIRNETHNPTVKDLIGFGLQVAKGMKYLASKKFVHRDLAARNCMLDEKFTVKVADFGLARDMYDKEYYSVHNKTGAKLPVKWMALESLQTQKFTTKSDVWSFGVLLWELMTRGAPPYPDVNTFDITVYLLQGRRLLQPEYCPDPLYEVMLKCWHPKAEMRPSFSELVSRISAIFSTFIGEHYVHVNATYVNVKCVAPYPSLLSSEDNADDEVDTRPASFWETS
# [9] = tested on: HUVEC; experiment: Antiangiogenic activity in HUVEC assessed as inhibition of FGF-induced survival; format: functional, cell-based; conditions: Homo sapiens
# [10] = Antitumor activity against human U251MG cells xenografted in athymic nude mouse assessed as complete tumor regression at 10 mg/kg, po bid; format: functional, U-251
# [11] = target: Substance-K receptor (Homo sapiens) (UniProt P21452); experiment: Inhibition of neurokinin NK2 receptor at 10 uM
# [12] = tested on: P388; experiment: Antitumor activity against mouse P388 cells xenografted in DBA/2 mouse assessed as mean survival at 30 mg/kg, po qd for 7 days followed by readministeration
# [13] = target: T1, Adenosine receptor A2a (Homo sapiens, UniProt P29274); experiment: Inhibition of adenosine A2A receptor at 10 uM
# T1 sequence (P29274 whole entry): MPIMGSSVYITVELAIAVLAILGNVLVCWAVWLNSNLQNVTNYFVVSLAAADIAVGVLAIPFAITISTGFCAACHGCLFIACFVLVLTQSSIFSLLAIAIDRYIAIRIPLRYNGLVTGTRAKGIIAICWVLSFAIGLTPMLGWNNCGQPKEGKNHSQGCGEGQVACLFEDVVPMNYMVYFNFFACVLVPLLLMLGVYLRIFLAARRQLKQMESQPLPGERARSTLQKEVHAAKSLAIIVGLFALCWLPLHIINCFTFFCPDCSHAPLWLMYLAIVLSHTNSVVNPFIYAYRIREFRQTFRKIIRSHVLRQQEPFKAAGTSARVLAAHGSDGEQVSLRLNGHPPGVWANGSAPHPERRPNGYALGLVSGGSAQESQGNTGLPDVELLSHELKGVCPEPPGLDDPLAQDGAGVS
# [14] = Antitumor activity against human U251MG cells xenografted in athymic nude mouse assessed as partial tumor regression at 30 mg/kg, po bid; format: functional, U-251
# [15] = target: Insulin-like growth factor 1 receptor (Homo sapiens) (UniProt P08069); experiment: Inhibition of IGFR1 at 1 uM
# [16] = Cmax in athymic nude mouse tumor xenografted with human A375 cells at 10 mg/kg, po
# [17] = target: T1, Adenosine receptor A2a; experiment: Inhibition of adenosine A2A receptor
# [18] = Antitumor activity against human U251MG cells xenografted in athymic nude mouse assessed as complete tumor regression at 1 mg/kg, po bid; format: functional, U-251
# [19] = target: T2, Cytochrome P450 3A4 (Homo sapiens, UniProt P08684); experiment: Induction of CYP3A4; format: ADME
# T2 sequence (P08684 whole entry): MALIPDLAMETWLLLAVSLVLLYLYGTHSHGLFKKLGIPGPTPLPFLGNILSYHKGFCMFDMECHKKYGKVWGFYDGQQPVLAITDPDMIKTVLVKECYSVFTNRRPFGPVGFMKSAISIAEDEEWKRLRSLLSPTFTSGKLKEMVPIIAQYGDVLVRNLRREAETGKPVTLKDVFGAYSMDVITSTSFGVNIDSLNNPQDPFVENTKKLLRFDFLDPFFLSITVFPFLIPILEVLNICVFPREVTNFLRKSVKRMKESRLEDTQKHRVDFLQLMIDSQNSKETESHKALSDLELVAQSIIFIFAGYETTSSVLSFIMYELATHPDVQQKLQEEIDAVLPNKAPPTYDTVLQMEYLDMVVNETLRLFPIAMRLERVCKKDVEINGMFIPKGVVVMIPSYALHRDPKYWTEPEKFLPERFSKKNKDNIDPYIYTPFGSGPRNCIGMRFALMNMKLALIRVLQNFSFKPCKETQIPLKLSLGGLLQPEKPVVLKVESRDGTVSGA
# [20] = Antiangiogenic activity in BAEC assessed as inhibition of FGF-induced proliferation; format: functional; conditions: Bos taurus
# [21] = target: Aurora kinase A (Homo sapiens, UniProt O14965); experiment: Inhibition of human Aurora-A using ATP as substrate
# [22] = Antiangiogenic activity in HMVEC assessed as inhibition of VEGF-induced survival; format: functional, Homo sapiens
# [23] = tested on: P388; experiment: Antitumor activity against mouse P388 cells xenografted in DBA/2 mouse assessed as mean survival at 30 mg/kg, po bid for 14 days followed by readministeration after 7 days; format: functional
# [24] = Antitumor activity against human U251MG cells xenografted in athymic nude mouse assessed as tumor growth inhibition at 30 mg/kg, po bid measured on day 29 relative to control; format: functional; conditions: U-251, 696 h, read-out: GI
# [25] = Toxicity in dog purkinje fibres assessed as drug-induced change in action potential; format: tissue-based, Canis lupus familiaris, Purkinje fiber
# [26] = tested on: HUVEC; experiment: Cytotoxicity against HUVEC; format: cell-based; conditions: human
# [27] = Antiangiogenic activity in HMVEC assessed as inhibition of VEGF-induced proliferation; format: functional; conditions: Homo sapiens
# [28] = Antiangiogenic activity in BAEC assessed as inhibition of FGF-induced survival; format: functional, Bos taurus
# [29] = target: Proto-oncogene tyrosine-protein kinase receptor Ret (Homo sapiens, UniProt P07949); experiment: Inhibition of human RET using ATP as substrate
# [30] = tested on: HUVEC; experiment: Antiangiogenic activity in HUVEC assessed as inhibition of VEGF-induced migration; format: functional, cell-based; conditions: Homo sapiens
# [31] = tested on: HUVEC; experiment: Antiangiogenic activity in HUVEC assessed as inhibition of angiopoietin 1-induced chemotaxis at > = 50 nM by boyden chamber assay; format: functional, cell-based; conditions: Homo sapiens
# [32] = Antitumor activity against human U251MG cells xenografted in athymic nude mouse assessed as tumor growth inhibition at 10 mg/kg, po bid measured on day 29 relative to control; format: functional; conditions: U-251, 696 h, read-out: GI
# [33] = Volume of distribution in Sprague-Dawley rat at 0.8 mg/kg, iv; format: ADME, organism-based; parameters: dose 0.8 mg/kg, route intravenous; conditions: in vivo
# [34] = tested on: A-375; experiment: Antitumor activity against human A375 cells xenografted in athymic nude mouse assessed as partial tumor regression at 3 mg/kg, po bid; format: functional
# [35] = target: Vascular endothelial growth factor receptor 1 (Homo sapiens, UniProt P17948); experiment: Inhibition of human VEGFR1 using ATP as substrate
# [36] = target: Tyrosine-protein kinase ABL1 (Homo sapiens) (UniProt P00519); experiment: Inhibition of ABL at 1 uM
# Sequence of Tyrosine-protein kinase ABL1 (Homo sapiens) (P00519 whole entry): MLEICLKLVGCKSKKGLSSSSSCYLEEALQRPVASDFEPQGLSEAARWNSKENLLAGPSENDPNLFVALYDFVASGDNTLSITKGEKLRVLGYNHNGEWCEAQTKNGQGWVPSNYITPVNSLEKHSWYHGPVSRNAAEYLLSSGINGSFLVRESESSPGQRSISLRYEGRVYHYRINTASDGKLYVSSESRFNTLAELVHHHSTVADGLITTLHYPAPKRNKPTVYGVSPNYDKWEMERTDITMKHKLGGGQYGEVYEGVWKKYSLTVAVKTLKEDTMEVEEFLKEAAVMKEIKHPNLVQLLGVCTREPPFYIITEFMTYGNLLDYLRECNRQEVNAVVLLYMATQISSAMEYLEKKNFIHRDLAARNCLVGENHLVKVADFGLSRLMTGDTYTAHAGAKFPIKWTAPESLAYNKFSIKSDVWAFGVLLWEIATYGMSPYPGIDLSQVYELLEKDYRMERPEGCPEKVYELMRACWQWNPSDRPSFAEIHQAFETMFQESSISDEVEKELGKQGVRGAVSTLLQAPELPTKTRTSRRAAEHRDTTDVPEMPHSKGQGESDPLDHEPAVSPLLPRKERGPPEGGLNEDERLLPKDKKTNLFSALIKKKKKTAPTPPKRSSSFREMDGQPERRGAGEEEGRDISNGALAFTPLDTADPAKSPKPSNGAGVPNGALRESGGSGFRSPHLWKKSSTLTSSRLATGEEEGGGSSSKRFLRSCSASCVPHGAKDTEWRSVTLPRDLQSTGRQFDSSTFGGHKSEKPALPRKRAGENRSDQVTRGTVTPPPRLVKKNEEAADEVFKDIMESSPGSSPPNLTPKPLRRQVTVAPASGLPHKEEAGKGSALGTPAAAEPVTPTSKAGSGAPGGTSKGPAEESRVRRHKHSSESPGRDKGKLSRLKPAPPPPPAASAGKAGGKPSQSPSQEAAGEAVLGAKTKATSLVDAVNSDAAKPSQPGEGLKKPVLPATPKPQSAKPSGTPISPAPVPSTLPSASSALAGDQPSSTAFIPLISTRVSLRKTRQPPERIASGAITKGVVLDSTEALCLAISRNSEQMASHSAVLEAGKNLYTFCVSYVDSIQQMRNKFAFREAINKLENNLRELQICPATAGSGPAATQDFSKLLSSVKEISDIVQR
# [37] = target: High affinity nerve growth factor receptor (Homo sapiens, UniProt P04629); experiment: Inhibition of human TRK-A using ATP as substrate
# [38] = tested on: Aorta; experiment: Antiangiogenic activity in rat aortic rings assessed as inhibition of peak phase microvessel growth; format: functional, tissue-based
# [39] = tested on: Mus musculus; experiment: Toxicity in athymic nude mouse bearing human A375 cells assessed as morbidity at 0.1 to 10 mg/kg, po; format: organism-based, A-375; parameters: dose 0.1-10 mg/kg, route oral; conditions: in vivo
# [40] = target: T2, Cytochrome P450 3A4; experiment: Inhibition of CYP3A4; format: ADME
# [41] = Clearance in cynomolgus monkey at 0.5 mg/kg, iv; format: ADME, organism-based, Macaca fascicularis; parameters: dose 0.5 mg/kg, route intravenous; conditions: in vivo
# [42] = target: Vascular endothelial growth factor receptor 2 (Homo sapiens, UniProt P35968)
# Description: Inhibition of human VEGFR2 expressed in porcine PAE145 cells cotransfected with chimeric rat TRK-A/KDR receptor after 1 hr by immunofluorescence assay
# [43] = Antitumor activity against human U251MG cells xenografted in athymic nude mouse assessed as partial tumor regression at 10 mg/kg, po bid; format: functional, U-251
# [44] = target: Tyrosine-protein kinase Blk (Mus musculus, UniProt P16277); experiment: Inhibition of mouse BLK using ATP as substrate
# [45] = Plasma protein binding in human; format: ADME, cell-free; conditions: read-out: PPB (converted)
# [46] = target: BDNF/NT-3 growth factors receptor (Homo sapiens, UniProt Q16620); experiment: Inhibition of human TRK-B using ATP as substrate
# Sequence of BDNF/NT-3 growth factors receptor (Q16620 whole entry): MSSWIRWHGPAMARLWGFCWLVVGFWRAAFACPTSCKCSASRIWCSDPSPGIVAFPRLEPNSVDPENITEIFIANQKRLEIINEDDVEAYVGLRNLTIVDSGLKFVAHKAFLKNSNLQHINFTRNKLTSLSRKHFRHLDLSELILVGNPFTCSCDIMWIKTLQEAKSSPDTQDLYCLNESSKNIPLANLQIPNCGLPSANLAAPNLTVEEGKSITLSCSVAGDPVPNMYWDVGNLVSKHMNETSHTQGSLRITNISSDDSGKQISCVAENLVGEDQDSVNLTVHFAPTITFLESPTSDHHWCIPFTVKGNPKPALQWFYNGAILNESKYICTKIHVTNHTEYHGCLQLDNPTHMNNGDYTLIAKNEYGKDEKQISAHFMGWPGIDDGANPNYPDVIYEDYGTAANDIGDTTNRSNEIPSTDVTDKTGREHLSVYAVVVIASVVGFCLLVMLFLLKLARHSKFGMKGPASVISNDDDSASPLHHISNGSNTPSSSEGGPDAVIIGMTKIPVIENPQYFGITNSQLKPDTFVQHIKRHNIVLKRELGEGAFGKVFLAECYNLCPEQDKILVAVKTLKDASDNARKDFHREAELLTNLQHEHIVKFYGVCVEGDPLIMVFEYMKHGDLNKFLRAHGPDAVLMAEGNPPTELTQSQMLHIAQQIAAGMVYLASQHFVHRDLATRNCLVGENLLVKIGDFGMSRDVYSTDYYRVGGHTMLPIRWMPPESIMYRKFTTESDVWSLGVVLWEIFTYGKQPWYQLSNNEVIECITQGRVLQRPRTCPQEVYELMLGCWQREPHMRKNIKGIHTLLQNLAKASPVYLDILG
# [47] = tested on: Mus musculus; experiment: Toxicity in athymic nude mouse bearing human U251MG cells assessed as body weight change at 1 to 30 mg/kg, po; format: organism-based, U-251; parameters: dose 1-30 mg/kg, route oral; conditions: in vivo
# [48] = Clearance in Sprague-Dawley rat at 0.8 mg/kg, iv; format: ADME, organism-based; parameters: dose 0.8 mg/kg, route intravenous; conditions: in vivo
# [49] = tested on: P388; experiment: Antitumor activity against mouse P388 cells xenografted in DBA/2 mouse assessed as mean survival at 30 mg/kg, po qd for 14 days followed by readministeration after 7 days; format: functional
# [50] = tested on: P388; experiment: Antitumor activity against mouse P388 cells xenografted in DBA/2 mouse assessed as mean survival at 30 mg/kg, po bid for 7 days followed by readministeration after 14 days; format: functional
# Sequence of Casein kinase I isoform alpha (P48729 whole entry, canonical isoform): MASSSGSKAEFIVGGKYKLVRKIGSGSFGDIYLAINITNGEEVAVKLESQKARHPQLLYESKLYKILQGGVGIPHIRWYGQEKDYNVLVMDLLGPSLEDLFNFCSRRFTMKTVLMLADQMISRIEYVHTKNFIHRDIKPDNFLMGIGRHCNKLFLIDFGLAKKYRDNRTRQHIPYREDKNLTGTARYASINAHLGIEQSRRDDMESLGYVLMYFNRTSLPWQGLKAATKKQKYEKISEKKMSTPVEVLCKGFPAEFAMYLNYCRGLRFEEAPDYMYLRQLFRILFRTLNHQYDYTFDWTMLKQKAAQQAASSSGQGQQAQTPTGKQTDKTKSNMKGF
structure (smiles),measurement,setting,value
CC(C)Cn1c2ccc(Nc3ncccn3)cc2c2c3c(c4c(c21)CCc1nn(C)cc1-4)C(=O)NC3 [CEP-11981],IC50,[1],48 nM
same,Cmax,[2],491 ng/mL
same,Activity,[3],50%
same,inhibition,[4],Active
same,Activity,[5],10%
same,EC50,[6],8 nM
same,Activity,[7],0%
same,inhibition,[8],Active
same,EC50,[9],8 nM
same,Activity,[10],0%
same,inhibition,[11],> 80%
same,MSD,[12],20.5 days
same,inhibition,[13],> 80%
same,Activity,[14],44%
same,inhibition,[15],Active
same,Cmax,[16],140 ng/g
same,Ki,[17],500 nM
same,Activity,[18],0%
same,Activity,[19],Not Active
same,EC50,[20],8 nM
same,IC50,[21],42 nM
same,EC50,[22],8 nM
same,MSD,[23],27.5 days
same,inhibition in vivo at 30 mg/kg,[24],88%
same,Activity,[25],Non-toxic
same,Activity,[26],Non-toxic
same,EC50,[27],8 nM
same,EC50,[28],8 nM
same,IC50,[29],5 nM
same,EC50,[30],8 nM
same,Activity,[31],Active
same,inhibition in vivo at 10 mg/kg,[32],75%
same,Vd,[33],1.3 L/kg
same,Activity,[34],11%
same,IC50,[35],3 nM
same,inhibition,[36],Active
same,IC50,[37],3 nM
same,Activity,[38],Dose-dependent effect
same,EC50,[38],4 nM
same,Activity,[39],Non-toxic
same,IC50,[40],> 30000 nM
same,clearance,[41],18 mL/min/kg
same,IC50,[42],< 10 nM
same,Activity,[43],20%
same,IC50,[44],8 nM
same,fraction unbound,[45],0.05
same,IC50,[46],5 nM
same,Activity,[47],Non-toxic
same,clearance,[48],4.3 mL/min/kg
same,MSD,[49],23.5 days
same,MSD,[50],23 days
